Data reported in patent US20050124683A1, “HIV protease inhibitors, compositions containing the same, their pharmaceutical uses and materials for their synthesis” (priority 2003, published 2005).
Like-named read-outs stand apart in the source and are kept apart here.

Experiments:
[1] = test system: HIV-1; test: Antiviral EC50 in HIV-infected T-cell lines (CPE inhibition / susceptibility assays); type: cell-based
Experimental: T-cell lines, CEM-SS, and MT-2, and viruses HIV-1 RF and HIV-1 NL4-3 (pNL4-3) were obtained from the National Institutes of Health (AIDS Research and Reference Reagent Program, Bethesda, MD).
The ability of compounds to protect cells against HIV infection was measured by the […] dye reduction method, essentially as described (See Pauwels, R. Balzarini, J. Baba, M. Snoeck, R. Schols, D. Herdewijn, P. Desmyter, J. and De Clercq, E. 1988, “Rapid and automated tetrazolium-based colorimetric assay for the detection of anti-HIV compounds,”. J Virol. Methods., 20: 309-321 and Weislow, O. S. Kiser, R. Fine, D. L. Bader, J. Shoemaker, R. H. and Boyd, M. R. 1989. “New soluble-formazan assay for HIV-1 cytopathic effects: application to high-flux screening of synthetic and natural products for AIDS-antiviral activity”. J. Natl. Cancer Inst. 81:577-586). Subject cells were infected with test virus at an moi of 0.025 to 0.819 or mock infected with medium only and added at 2×10^4 cells per well into 96 well plates containing half-log dilutions of test compounds. Six days later, 50 μl of XTT (1 mg/ml XTT tetrazolium, […] phenazine methosulfate) was added to the wells and the plate was reincubated for four hours. Viability, as determined by the amount of XTT formazan produced, was quantified spectrophotometrically by absorbance at 450 nm. Data from CPE assays were expressed as the percent of formazan produced in compound-treated cells compared to formazan produced in wells of uninfected, compound-free cells. The fifty percent effective concentration (EC50) was calculated as the concentration of compound that effected an increase in the percentage of formazan production in infected, compound-treated cells to 50% of that produced by uninfected, compound-free cells. The 50% cytotoxicity concentration (CC50) was calculated as the concentration of compound that decreased the percentage of formazan produced in uninfected, compound-treated cells to 50% of that produced in uninfected, compound-free cells. The therapeutic index was calculated by dividing the cytotoxicity (CC50) by the antiviral activity (EC50).
Compounds were tested in phenotypic susceptibility assays at Virologic, Inc., (See Petropoulos C. J., Parkin N. T., Limoli K. L., Lie Y. S., Wrin T., Huang W., Tian H., Smith D., Winslow G. A., Capon D J, Whitcomb J M. 2000, “A novel phenotypic drug susceptibility assay for human immunodeficiency virus type 1,” Antimicrob Agents Chemother 44(4):920-928) or using the assay described here. MT-2 cells were infected with either HIV-1 NL4-3 or HIV-1 NL4-3(I84V/L90M) and incubated in the presence of serial 0.5 log dilutions of test compounds. Three days later, culture supernatants were collected and virus production, as determined by p24 ELISA, was assayed. Percent inhibition was calculated as p24 concentration in compound-treated samples as compared to infected, compound-free controls. Inhibition of viral replication is determined by measuring reduction in HIV p24 present in the culture supernatant, using a Beckman-Coulter p24 HIV-1 Ag EIA kit and following the supplied protocol. Absorbance is read on a MRX microplate reader (Dynex Technologies). The EC50 was calculated as the concentration of compound that effected a decrease in the p24 production by infected, compound-treated cells to 50% of that produced by infected, compound-free cells.

[2] = molecular target: T1, HIV-1 protease (Human immunodeficiency virus type 1 group M subtype B, UniProt P04585, Q495S); test: HIV-1 Protease RET assay (Ki, resonance energy transfer); type: biochemical; details: Q7S mutant HIV-1 protease
T1 construct: made in house
Experimental: Ki's for the inhibitors of HIV-1 protease were determined using a resonance energy transfer (RET) assay. […] This enzyme is first partially purified as inclusion bodies from cell lysate. It is then solublized in 8M urea and passed through a Q-Sepharose column (Pharmacia) for further purification. To refold this protein, samples containing Q7S is dialyzed into 50 mM sodium phosphate pH 7.0, 50 mM NaCl, 10 mM DTT, and 10% glycerol.
The commercially available peptide substrate (Molecular Probes Cat. # H-2930) RE(EDANS)SQNYPIVQK(DABCYL)R is used to assess activity and Ki's. This peptide is cleaved quantitatively by HIV-1 Pr at the Tyr-Pro bond. The EDANS fluorophore absorbs at 340 nm and emits at 490 nm. The reaction is carried out in a 96 well plate in a total volume of 100 µL and is run for 12 minutes at 37C under steady-state conditions with 5 µM substrate and 2 nM active dimer enzyme concentration. The literature value Km for this substrate and enzyme is 103+/−8 μM (See Matayoshi, et al., “Novel Fluorogenic Substrates for Assaying Retroviral Proteases by Resonance Energy Transfer,” Science 247, 954 (1990)). The buffer for this reaction is 0.1M sodium acetate pH 4.8, 1M NaCl, 1 mM EDTA, 5 mM dithiothreitol, 10% dimethyl sulfoxide and 1 mg/ml bovine serum albumin. Inhibition curves are fit using the Morrison tight binding equation.

[3] = Human immunodeficiency virus 1, T-cell, read-out: EC50 (wt) (nm), wt virus
[4] = Human immunodeficiency virus 1, T-cell, read-out: Ave. EC50, average, unit inferred

| SMILES | EC50 [1, 3] [nM] | Ki ([2]; read-out: Ki (nm)) [nM] | EC50 [1, 4] [nM] | Ki ([2]; average, read-out: Ave. Ki) [nM] | EC50 ([1]; read-out: EC50 (wt) (nm), wt virus) [nM] |
| --- | --- | --- | --- | --- | --- |
| Cc1cnccc1CNC(=O)C1N(C(=O)[C@@H](O)[C@H](Cc2ccccc2)NC(=O)c2cccc(O)c2C)CC(F)(F)C1(C)C (stereo partly shown) | 8 | < 0.1 |  |  |  |
| Cc1c(O)cccc1C(=O)N[C@@H](Cc1ccccc1)[C@H](O)C(=O)N1COC(C)(C)[C@H]1C(=O)NC1CCc2ccccc21 (stereo partly shown) | 33 | < 0.1 |  |  |  |
| Cc1cc(O)c(C)c(C(=O)N[C@@H](Cc2ccccc2)[C@H](O)C(=O)N2COC(C)(C)[C@H]2C(=O)NC2CCc3ccccc32)c1 (stereo partly shown) | 61 | < 0.1 |  |  |  |
| CCCCNC(=O)[C@H]1N(C(=O)[C@@H](O)[C@H](Cc2ccccc2)NC(=O)c2cc(C)cc(O)c2C)CC(F)(F)C1(C)C | 23 | < 0.1 |  |  |  |
| Cc1cc(O)c(C)c(C(=O)N[C@@H](Cc2ccccc2)[C@H](O)C(=O)N2CC(F)(F)C(C)(C)[C@H]2C(=O)NCc2ccncc2C)c1 | 34 | < 0.1 |  |  |  |
| Cc1cc(O)c(C)c(C(=O)N[C@@H](Cc2ccccc2)[C@H](O)C(=O)N2CC(F)(F)C(C)(C)[C@H]2C(=O)NCc2ccccn2)c1 | 61 | < 0.1 |  |  |  |
| CC[C@H](C)CNC(=O)[C@H]1N(C(=O)[C@@H](O)[C@H](Cc2ccccc2)NC(=O)c2cc(C)cc(O)c2C)CC(F)(F)C1(C)C | 7.5 | < 0.1 |  |  |  |
| C=CCNC(=O)C1N(C(=O)[C@@H](O)[C@H](Cc2cccc(F)c2)NC(=O)c2cccc(O)c2C)CC(F)(F)C1(C)C (stereo partly drawn) [Example D10, (R)-3-((2S,3R)-4,4-Difluoro-1-[4-(3-fluoro-phenyl)-2-hydroxy-3-(3-hydroxy-2-methyl-benzoylamino)-butyryl])-3,3-dimethyl-pyrrolidine-2-carboxylic acid allylamide] |  |  | 16 | < 0.1 |  |
| Cc1c(O)cccc1C(=O)N[C@@H](Cc1cccc(F)c1)[C@H](O)C(=O)N1CC(F)(F)C(C)(C)[C@H]1C(=O)NCC(C)C [Example D11, (S)-4,4-Difluoro-1-[(2S,3S)-4-(3-fluoro-phenyl)-2-hydroxy-3-(3-hydroxy-2-methyl-benzoylamino)-butyryl]-3,3-dimethyl-pyrrolidine-2-carboxylic acid isobutyl-amide] |  |  | 13 | < 0.1 |  |
| C=CCNC(=O)[C@H]1N(C(=O)[C@@H](O)[C@H](Cc2ccccc2)NC(=O)c2cc(C)cc(O)c2C)CSC1(C)C [Example D12, (R)-3-[(2S,3S)-2-Hydroxy-3-(3-hydroxy-2,5-dimethyl-benzoylamino)-4-phenyl-butyryl]-5,5-dimethyl-thiazolidine-4-carboxylic acid allylamide] |  |  | 16 | 0.7 |  |
| C=CCNC(=O)[C@H]1N(C(=O)[C@@H](O)[C@H](Cc2ccccc2)NC(=O)c2cc(C)cc(O)c2C)CC(F)(F)C1(C)C [Example D13, (S)-4,4-Difluoro-1-[(2S,3S)-2-hydroxy-3-(3-hydroxy-2,5-dimethyl-benzoylamino)-4-phenyl-butyryl]-3,3-dimethyl-pyrrolidine-2-carboxylic acid allylamide] |  |  | 17 | < 0.1 |  |
| Cc1cc(O)c(C)c(C(=O)N[C@@H](Cc2ccccc2)[C@H](O)C(=O)N2CC(F)(F)C(C)(C)[C@H]2C(=O)NCC(F)(F)F)c1 [Example D16, (S)-4,4-Difluoro-1-[(2S,3S)-2-hydroxy-3-(3-hydroxy-2,5-dimethyl-benzoylamino)-4-phenyl-butyryl]-3,3-dimethyl-pyrrolidine-2-carboxylic acid (2,2,2-trifluoro-ethyl)-amide] |  |  | 18 | < 0.1 |  |
| CCNC(=O)[C@H]1N(C(=O)[C@@H](O)[C@H](Cc2ccccc2)NC(=O)c2cc(C)cc(O)c2C)CC(F)(F)C1(C)C [Example D17, (S)-4,4-Difluoro-1-[(2S,3S)-2-hydroxy-3-(3-hydroxy-2,5-dimethyl-benzoylamino)-4-phenyl-butyryl]-3,3-dimethyl-pyrrolidine-2-carboxylic acid ethylamide] |  |  | 66 | < 0.1 |  |
| CC[C@H](C)CNC(=O)[C@H]1N(C(=O)[C@@H](O)[C@H](Cc2ccccc2)NC(=O)c2cccc(O)c2C)CC(F)(F)C1(C)C [Example D18, (S)-4,4-Difluoro-1-[(2S,3S)-2-hydroxy-3-(3-hydroxy-2-methyl-benzoylamino)-4-phenyl-butyryl]-3,3-dimethyl-pyrrolidine-2-carboxylic acid ((2S)-2-methyl-butyl)-amide] |  |  | 10 | < 0.1 |  |
| C=CCNC(=O)C1N(C(=O)[C@@H](O)[C@H](Cc2cccc(F)c2)NC(=O)c2cccc(O)c2C)CC(F)(F)C1(C)C (stereo partly shown) [drawing 101] | 16 | < 0.1 |  |  |  |
| Cc1cc(O)c(C)c(C(=O)N[C@@H](Cc2ccccc2)[C@H](O)C(=O)N2CC(F)(F)C(C)(C)[C@H]2C(=O)NCC(F)(F)F)c1 [drawing 119] | 18 | < 0.1 |  |  |  |
| Cc1c(O)cccc1C(=O)N[C@@H](Cc1cccc(F)c1)[C@H](O)C(=O)N1CC(F)(F)C(C)(C)[C@H]1C(=O)NCC(C)(C)C [drawing 136] | 13 | < 0.1 |  |  |  |
| Cc1c(O)cccc1C(=O)N[C@@H](Cc1cccc(F)c1)[C@H](O)C(=O)N1CC(F)(F)C(C)(C)[C@H]1C(=O)NCC(C)(C)C [drawing 137] |  | < 0.1 |  |  | 8.8 |
| CCNC(=O)[C@H]1N(C(=O)[C@@H](O)[C@H](Cc2ccccc2)NC(=O)c2cc(C)cc(O)c2C)CC(F)(F)C1(C)C [drawing 141] | 37 | < 0.1 |  |  |  |
| CC[C@H](C)CNC(=O)[C@H]1N(C(=O)[C@@H](O)[C@H](Cc2ccccc2)NC(=O)c2cccc(O)c2C)CC(F)(F)C1(C)C [drawing 143] | 11 | < 0.1 |  |  |  |
